According to ChEMBL document CHEMBL1127815, “Homodimeric and heterodimeric bis(amino thiol) oxometal complexes with rhenium(V) and technetium(V). Control of heterodimeric complex formation and an approach to metal complexes that mimic steroid hormones” (J Med Chem, 1994):

What was measured:
[1] = test system: Rattus norvegicus; experiment: Biodistribution in Sprague-Darwley rat rest of brain at 30 min after intravenous administration of 70g; assay type: ADME, organism-based; conditions: in vivo, 0.5 h
[2] = test system: Rattus norvegicus; experiment: Biodistribution in Sprague-Darwley rat rest of brain at 60 min after intravenous administration of 70g; assay type: ADME, organism-based; conditions: in vivo, 1 h
[3] = test system: Rattus norvegicus; experiment: Biodistribution in Sprague-Darwley rat kidney at 30 min after intravenous administration of 70g; assay type: ADME, organism-based; conditions: in vivo, 0.5 h
[4] = test system: Rattus norvegicus; experiment: Biodistribution in Sprague-Darwley rat kidney at 60 min after intravenous administration of 70g; assay type: ADME, organism-based; conditions: in vivo, 1 h
[5] = test system: Rattus norvegicus; experiment: Biodistribution in Sprague-Darwley rat liver at 120 min after intravenous administration of 70g; assay type: ADME, organism-based; conditions: in vivo, 2 h
[6] = test system: Rattus norvegicus; experiment: Biodistribution in Sprague-Darwley rat liver at 15 min after intravenous administration of 70g; assay type: ADME, organism-based; conditions: in vivo, 0.25 h
[7] = test system: Rattus norvegicus; experiment: Biodistribution in Sprague-Darwley rat liver at 2 min after intravenous administration of 70g; assay type: ADME, organism-based; conditions: in vivo
[8] = test system: Rattus norvegicus; experiment: Biodistribution in Sprague-Darwley rat liver at 30 min after intravenous administration of 70g; assay type: ADME, organism-based; conditions: in vivo, 0.5 h
[9] = test system: Rattus norvegicus; experiment: Biodistribution in Sprague-Darwley rat liver at 60 min after intravenous administration of 70g; assay type: ADME, organism-based; conditions: in vivo, 1 h
[10] = test system: Rattus norvegicus; experiment: Biodistribution in Sprague-Darwley rat lung at 120 min after intravenous administration of 70g; assay type: ADME, organism-based; conditions: in vivo, 2 h
[11] = test system: Rattus norvegicus; experiment: Biodistribution in Sprague-Darwley rat lung at 15 min after intravenous administration of 70g; assay type: ADME, organism-based; conditions: in vivo, 0.25 h
[12] = test system: Rattus norvegicus; experiment: Biodistribution in Sprague-Darwley rat lung at 2 min after intravenous administration of 70g; assay type: ADME, organism-based; conditions: in vivo
[13] = test system: Rattus norvegicus; experiment: Biodistribution in Sprague-Darwley rat lung at 30 min after intravenous administration of 70g; assay type: ADME, organism-based; conditions: in vivo, 0.5 h
[14] = test system: Rattus norvegicus; experiment: Biodistribution in Sprague-Darwley rat lung at 60 min after intravenous administration of 70g; assay type: ADME, organism-based; conditions: in vivo, 1 h
[15] = test system: Rattus norvegicus; experiment: Biodistribution in Sprague-Darwley rat muscle at 120 min after intravenous administration of 70g; assay type: ADME, organism-based, Muscle tissue; conditions: in vivo, 2 h
[16] = test system: Rattus norvegicus; experiment: Biodistribution in Sprague-Darwley rat muscle at 15 min after intravenous administration of 70g; assay type: ADME, organism-based, Muscle tissue; conditions: in vivo, 0.25 h
[17] = test system: Rattus norvegicus; experiment: Biodistribution in Sprague-Darwley rat muscle at 2 min after intravenous administration of 70g; assay type: ADME, organism-based, Muscle tissue; conditions: in vivo
[18] = test system: Rattus norvegicus; experiment: Biodistribution in Sprague-Darwley rat muscle at 30 min after intravenous administration of 70g; assay type: ADME, organism-based, Muscle tissue; conditions: in vivo, 0.5 h
[19] = test system: Rattus norvegicus; experiment: Biodistribution in Sprague-Darwley rat muscle at 60 min after intravenous administration of 70g; assay type: ADME, organism-based, Muscle tissue; conditions: in vivo, 1 h
[20] = test system: Rattus norvegicus; experiment: Biodistribution in Sprague-Darwley rat rest of brain at 120 min after intravenous administration of 70g; assay type: ADME, organism-based; conditions: in vivo, 2 h
[21] = test system: Rattus norvegicus; experiment: Biodistribution in Sprague-Darwley rat rest of brain at 15 min after intravenous administration of 70g; assay type: ADME, organism-based; conditions: in vivo, 0.25 h
[22] = test system: Rattus norvegicus; experiment: Biodistribution in Sprague-Darwley rat rest of brain at 2 min after intravenous administration of 70g; assay type: ADME, organism-based; conditions: in vivo
[23] = test system: Rattus norvegicus; experiment: Biodistribution in Sprague-Darwley rat blood at 60 min after intravenous administration of 70g; assay type: ADME, organism-based; conditions: in vivo, 1 h
[24] = test system: Rattus norvegicus; experiment: Biodistribution in Sprague-Darwley rat fat at 120 min after intravenous administration of 70g; assay type: ADME, organism-based, Adipose tissue; conditions: in vivo, 2 h
[25] = test system: Rattus norvegicus; experiment: Biodistribution in Sprague-Darwley rat fat at 15 min after intravenous administration of 70g; assay type: ADME, organism-based, Adipose tissue; conditions: in vivo, 0.25 h
[26] = test system: Rattus norvegicus; experiment: Biodistribution in Sprague-Darwley rat fat at 2 min after intravenous administration of 70g; assay type: ADME, organism-based, Adipose tissue; conditions: in vivo
[27] = test system: Rattus norvegicus; experiment: Biodistribution in Sprague-Darwley rat fat at 60 min after intravenous administration of 70g; assay type: ADME, organism-based, Adipose tissue; conditions: in vivo, 1 h
[28] = test system: Rattus norvegicus; experiment: Biodistribution in Sprague-Darwley rat heart at 120 min after intravenous administration of 70g; assay type: ADME, organism-based; conditions: in vivo, 2 h
[29] = test system: Rattus norvegicus; experiment: Biodistribution in Sprague-Darwley rat heart at 15 min after intravenous administration of 70g; assay type: ADME, organism-based; conditions: in vivo, 0.25 h
[30] = test system: Rattus norvegicus; experiment: Biodistribution in Sprague-Darwley rat heart at 2 min after intravenous administration of 70g; assay type: ADME, organism-based; conditions: in vivo
[31] = test system: Rattus norvegicus; experiment: Biodistribution in Sprague-Darwley rat heart at 30 min after intravenous administration of 70g; assay type: ADME, organism-based; conditions: in vivo, 0.5 h
[32] = test system: Rattus norvegicus; experiment: Biodistribution in Sprague-Darwley rat heart at 60 min after intravenous administration of 70g; assay type: ADME, organism-based; conditions: in vivo, 1 h
[33] = test system: Rattus norvegicus; experiment: Biodistribution in Sprague-Darwley rat kidney at 120 min after intravenous administration of 70g; assay type: ADME, organism-based; conditions: in vivo, 2 h
[34] = test system: Rattus norvegicus; experiment: Biodistribution in Sprague-Darwley rat kidney at 15 min after intravenous administration of 70g; assay type: ADME, organism-based; conditions: in vivo, 0.25 h
[35] = test system: Rattus norvegicus; experiment: Biodistribution in Sprague-Darwley rat kidney at 2 min after intravenous administration of 70g; assay type: ADME, organism-based; conditions: in vivo
[36] = test system: Rattus norvegicus; experiment: Biodistribution in Sprague-Darwley rat blood at 120 min after intravenous administration of 70g; assay type: ADME, organism-based; conditions: in vivo, 2 h
[37] = test system: Rattus norvegicus; experiment: Biodistribution in Sprague-Darwley rat blood at 15 min after intravenous administration of 70g; assay type: ADME, organism-based; conditions: in vivo, 0.25 h
[38] = test system: Rattus norvegicus; experiment: Biodistribution in Sprague-Darwley rat blood at 2 min after intravenous administration of 70g; assay type: ADME, organism-based; conditions: in vivo
[39] = test system: Rattus norvegicus; experiment: Biodistribution in Sprague-Darwley rat blood at 30 min after intravenous administration of 70g; assay type: ADME, organism-based; conditions: in vivo, 0.5 h
[40] = test system: Rattus norvegicus; experiment: Biodistribution in Sprague-Darwley rat fat at 30 min after intravenous administration of 70g; assay type: ADME, organism-based, Adipose tissue; conditions: in vivo, 0.5 h

Work on “[N-(2-Mercapto-2-methylpropyl)-N-(4-methoxyphenyl)-aminato][2-(mercaptomethyl)pyridinato]oxotechnetium V” yielded an ID/g [1] of 0.283%, an ID/g [2] of 0.185% and an ID/g [3] of 1.075%. It also gave an ID/g [4] of 1.281%, an ID/g [5] of 2.892% and an ID/g [6] of 3.69%. The ID/g [7] was 4.121%, the ID/g [8] was 2.987% and the ID/g [9] was 3.309%. The ID/g [10] was 0.224%, the ID/g [11] was 0.83% and the ID/g [12] was 4.24%. For the same substance, the ID/g [13] was 0.434%, the ID/g [14] was 0.344% and the ID/g [15] was 0.107%. It also gave an ID/g [16] of 0.379%, an ID/g [17] of 0.364% and an ID/g [18] of 0.255%. For the same substance, the ID/g [19] was 0.167%, the ID/g [20] was 0.128% and the ID/g [21] was 0.63%. The ID/g [22] was 1.346%, the ID/g [23] was 0.202% and the ID/g [24] was 1.128%. The ID/g [25] was 0.511%, the ID/g [26] was 0.241% and the ID/g [27] was 1.071%. It also gave an ID/g [28] of 0.151%, an ID/g [29] of 0.721% and an ID/g [30] of 3.285%. For the same substance, the ID/g [31] was 0.386%, the ID/g [32] was 0.305% and the ID/g [33] was 1.779%. The ID/g [34] was 1.291%, the ID/g [35] was 3.117% and the ID/g [36] was 0.192%. It also gave an ID/g [37] of 0.316%, an ID/g [38] of 0.681% and an ID/g [39] of 0.213%. The ID/g [40] was 0.297%.
